Experimental data from US8951963B2, “Active cores of peptide triazole HIV-1 entry inhibitors” (priority 2009, dated 2015).
*1 amine or outer side, *2 acyl side, *3 side chain or, on linkers, in order; H or OH if unused. Where a SMILES comes first, the peptide text is derived from it. [ ]: non-standard residue; d: D form. X1 = O=C([C@@H]1C[C@H](n2cc([C]34[CH]5[CH]6[CH]7[CH]3[Fe]6754389%10[CH]4[CH]3[CH]8[CH]9[CH]4%10)nn2)CN1[*:1])[*:2]; Cit = NC(=O)NCCC[C@H](N)C(=O)O

How the values were obtained:
HIV-1 YU2 gp120 = target: T1, HIV-1 YU2 gp120 (Human immunodeficiency virus type 1 group M subtype B, UniProt P35961); format: binding; conditions: for dissociation rate constant (koff): Table 11, dissociation rate; for Ka: Table 11, association rate
T1 construct: made in house; host or cells: Drosophila S2 cells
Description: Surface plasmon resonance (SPR) interaction analyses were performed on a Biacore® 3000 optical biosensor (GE). All experiments were carried out at 25° C. using standard PBS, pH 7.4, with 0.005% Surfactant P20.
Regeneration of the surface was achieved by a one 5-second pulse of 10 mM glycine, pH 1.5.
SPR data analyses were performed using BIAEvaluation 4.0 software (GE). […] Experimental data were fitted to a simple 1:1 binding model with a parameter included for mass transport. […] The inhibition curve was converted into a calibration curve by the use of a fitting function. The fitting was done using the 4-parameter equation in BIAevaluation software: […]

gp120 = target: T2, gp120 (Human immunodeficiency virus type 1 group M subtype B, UniProt P35961); format: binding, HIV-1; conditions: ITC, 25° C., PBS pH 7.4
T2 construct: made in house; host or cells: Drosophila S2 cells
Description: FIGS. 14A-14D are a series of graphs of calorimetric titration data of gp120 with various peptides. […] Data was obtained as 25° C. in PBS, pH 7.4. Experiments in FIGS. 14A and 14B were carried out using a VP-ITC, where 2 μM gp120 in the calorimetric cell (˜1.4 mL) was titrated with 10 μL aliquots of peptide at concentration of 30 μM.
Isothermal titration calorimetric experiments were performed using high-precision calorimetric systems of model VP-ITC or ITC20 from MicroCal Inc. The titrations were performed by stepwise addition of peptide to gp120 contained in the calorimetric cell at a constant temperature of 25° C. […] For the experiments carried out in the VP-ITC the concentration of gp120 was about 2 μM and the syringe contained the peptide at a concentration about 30 μM. For the experiment carried out using ITC20 gp120 was prepared at about 4 μM and the peptide at 50-100 μM. The solutions contained within the calorimetric cells and injector syringes were prepared in PBS, pH 7.4 and thoroughly degassed to avoid bubble formation in the calorimetric cell. The heat evolved upon each injection of the peptide solution was obtained from the integral of the calorimetric signal. The heat associated with binding of a ligand to the protein in the cell was obtained by subtracting the heat of dilution from the heat of reaction.

Row | Structure (SMILES) | dissociation rate constant (koff) (HIV-1 YU2 gp120) | ΔH (gp120) | −TΔS (gp120) | Ka (HIV-1 YU2 gp120)
1 | CC[C@H](C)[C@H](NC(=O)[C@@H](N)CCCNC(=N)N)C(=O)N[C@@H](CC(N)=O)C(=O)N[C@@H](CC(N)=O)C(=O)N[C@H](C(=O)N1C[C@@H](n2cc([C]34[CH]5[CH]6[CH]7[CH]3[Fe]6754389%10[CH]4[CH]3[CH]8[CH]9[CH]4%10)nn2)C[C@H]1C(=O)N[C@@H](Cc1c[nH]c2ccccc12)C(=O)N[C@@H](CO)C(N)=O)[C@@H](C)CC (some centres unmarked) [UM11] (H-RINNI[X1]WS-NH2; N-terminus and C-terminus assumed) | 2.1E−02 ± 0.6 1/S | – | – | –
2 | CC[C@H](C)[C@H](N)C(=O)N[C@@H](CC(N)=O)C(=O)N[C@@H](CC(N)=O)C(=O)N[C@H](C(=O)N1C[C@@H](n2cc([C]34[CH]5[CH]6[CH]7[CH]3[Fe]6754389%10[CH]4[CH]3[CH]8[CH]9[CH]4%10)nn2)C[C@H]1C(=O)N[C@@H](Cc1c[nH]c2ccccc12)C(N)=O)[C@@H](C)CC (some centres unmarked) [UM15] (H-INNI[X1]W-NH2) | 3.3E−03 ± 0.3 1/S | -16.6 kcal/mol | +6.6 kcal/mol | –
3 | CC[C@H](C)[C@H](NC(=O)[C@@H](N)CCCNC(=N)N)C(=O)N[C@@H](CC(N)=O)C(=O)N[C@@H](CC(N)=O)C(=O)N[C@H](C(=O)N1C[C@@H](n2cc([C]34[CH]5[CH]6[CH]7[CH]3[Fe]6754389%10[CH]4[CH]3[CH]8[CH]9[CH]4%10)nn2)C[C@H]1C(N)=O)[C@@H](C)CC (some centres unmarked) [UM16] (H-RINNI[X1]-NH2; N-terminus assumed) | Not detectable | – | – | Not detectable
4 | CC[C@H](C)[C@H](N)C(=O)N[C@@H](CC(N)=O)C(=O)N[C@@H](CC(N)=O)C(=O)N[C@H](C(=O)N1C[C@@H](n2cc([C]34[CH]5[CH]6[CH]7[CH]3[Fe]6754389%10[CH]4[CH]3[CH]8[CH]9[CH]4%10)nn2)C[C@H]1C(=O)N[C@@H](Cc1c[nH]c2ccccc12)C(=O)N[C@@H](CO)C(N)=O)[C@@H](C)CC (some centres unmarked) [UM21] (H-INNI[X1]WS-NH2; N-terminus and C-terminus assumed) | 1.4E−03 ± 0.5 1/S | – | – | –
5 | CC[C@H](C)[C@H](NC(=O)[C@H](CC(N)=O)NC(=O)[C@H](CC(N)=O)NC(=O)[C@@H](N)CCCNC(=N)N)C(=O)N1C[C@@H](n2cc([C]34[CH]5[CH]6[CH]7[CH]3[Fe]6754389%10[CH]4[CH]3[CH]8[CH]9[CH]4%10)nn2)C[C@H]1C(=O)N[C@@H](Cc1c[nH]c2ccccc12)C(=O)N[C@@H](CO)C(N)=O (some centres unmarked) [UM22] (H-RNNI[X1]WS-NH2; N-terminus and C-terminus assumed) | 6.8E−03 ± 0.4 1/S | – | – | –
6 | CC[C@H](C)[C@H](NC(=O)[C@H](CC(N)=O)NC(=O)[C@H](CC(N)=O)NC(=O)[C@@H](N)CCC(=O)O)C(=O)N1C[C@@H](n2cc([C]34[CH]5[CH]6[CH]7[CH]3[Fe]6754389%10[CH]4[CH]3[CH]8[CH]9[CH]4%10)nn2)C[C@H]1C(=O)N[C@@H](Cc1c[nH]c2ccccc12)C(=O)N[C@@H](CO)C(N)=O (some centres unmarked) [UM23] (H-ENNI[X1]WS-NH2; N-terminus and C-terminus assumed) | 3.4E−03 ± 0.2 1/S | – | – | –
7 | CC[C@H](C)[C@H](NC(=O)[C@H](CC(N)=O)NC(=O)[C@H](CC(N)=O)NC(=O)[C@@H](N)CCCNC(N)=O)C(=O)N1C[C@@H](n2cc([C]34[CH]5[CH]6[CH]7[CH]3[Fe]6754389%10[CH]4[CH]3[CH]8[CH]9[CH]4%10)nn2)C[C@H]1C(=O)N[C@H](Cc1c[nH]c2ccccc12)C(=O)N[C@@H](CO)C(N)=O (some centres unmarked) [UM24-DW] (H-[Cit]NNI[X1][dW]S-NH2; N-terminus assumed) | Not detectable | – | – | Not detectable
8 | CC[C@H](C)[C@H](NC(=O)[C@H](CC(N)=O)NC(=O)[C@H](CC(N)=O)NC(=O)[C@@H](N)CCCCN)C(=O)N1C[C@@H](n2cc([C]34[CH]5[CH]6[CH]7[CH]3[Fe]6754389%10[CH]4[CH]3[CH]8[CH]9[CH]4%10)nn2)C[C@H]1C(=O)N[C@@H](Cc1c[nH]c2ccccc12)C(=O)N[C@@H](CO)C(N)=O (some centres unmarked) [UM27] (H-KNNI[X1]WS-NH2) | 8.8E−03 ± 2.1 1/S | – | – | –
9 | CC[C@H](C)[C@H](NC(=O)[C@H](CC(N)=O)NC(=O)[C@H](CC(N)=O)NC(=O)[C@@H](N)Cc1ccccc1)C(=O)N1C[C@@H](n2cc([C]34[CH]5[CH]6[CH]7[CH]3[Fe]6754389%10[CH]4[CH]3[CH]8[CH]9[CH]4%10)nn2)C[C@H]1C(=O)N[C@@H](Cc1c[nH]c2ccccc12)C(=O)N[C@@H](CO)C(N)=O (some centres unmarked) [UM28] (H-FNNI[X1]WS-NH2) | 4.3E−03 ± 0.8 1/S | – | – | –
10 | CC[C@H](C)[C@H](NC(=O)[C@H](CC(N)=O)NC(=O)[C@@H](N)CC(N)=O)C(=O)N1C[C@@H](n2cc([C]34[CH]5[CH]6[CH]7[CH]3[Fe]6754389%10[CH]4[CH]3[CH]8[CH]9[CH]4%10)nn2)C[C@H]1C(=O)N[C@@H](Cc1c[nH]c2ccccc12)C(=O)N[C@@H](CO)C(N)=O (some centres unmarked) [UM31] (H-NNI[X1]WS-NH2) | 7.8E−03 ± 1.1 1/S | -13.8 kcal/mol | +4.1 kcal/mol | –
11 | CC[C@H](C)[C@H](NC(=O)[C@H](CC(N)=O)NC(=O)[C@@H](N)CCCNC(=N)N)C(=O)N1C[C@@H](n2cc([C]34[CH]5[CH]6[CH]7[CH]3[Fe]6754389%10[CH]4[CH]3[CH]8[CH]9[CH]4%10)nn2)C[C@H]1C(=O)N[C@@H](Cc1c[nH]c2ccccc12)C(=O)N[C@@H](CO)C(N)=O (some centres unmarked) [UM32] (H-RNI[X1]WS-NH2) | 3.1E−03 ± 1.5 1/S | – | – | –
12 | CC[C@H](C)[C@H](NC(=O)[C@H](CC(N)=O)NC(=O)[C@@H](N)CCC(=O)O)C(=O)N1C[C@@H](n2cc([C]34[CH]5[CH]6[CH]7[CH]3[Fe]6754389%10[CH]4[CH]3[CH]8[CH]9[CH]4%10)nn2)C[C@H]1C(=O)N[C@@H](Cc1c[nH]c2ccccc12)C(=O)N[C@@H](CO)C(N)=O (some centres unmarked) [UM33] (H-ENI[X1]WS-NH2) | 1.8E−03 ± 0.8 1/S | – | – | –
13 | CC[C@H](C)[C@H](NC(=O)[C@H](CC(N)=O)NC(=O)[C@@H](N)CCCNC(N)=O)C(=O)N1C[C@@H](n2cc([C]34[CH]5[CH]6[CH]7[CH]3[Fe]6754389%10[CH]4[CH]3[CH]8[CH]9[CH]4%10)nn2)C[C@H]1C(=O)N[C@@H](Cc1c[nH]c2ccccc12)C(=O)N[C@@H](CO)C(N)=O (some centres unmarked) [UM34] (H-[Cit]NI[X1]WS-NH2; N-terminus assumed) | Not detectable | – | – | Not detectable
14 | CC[C@H](C)[C@H](N)C(=O)N[C@@H](CC(N)=O)C(=O)N[C@H](C(=O)N1C[C@@H](n2cc([C]34[CH]5[CH]6[CH]7[CH]3[Fe]6754389%10[CH]4[CH]3[CH]8[CH]9[CH]4%10)nn2)C[C@H]1C(=O)N[C@@H](Cc1c[nH]c2ccccc12)C(=O)N[C@@H](CO)C(N)=O)[C@@H](C)CC (some centres unmarked) [UM35] (H-INI[X1]WS-NH2; N-terminus assumed) | Not detectable | – | – | Not detectable
15 | CC[C@H](C)[C@H](NC(=O)[C@@H](N)CC(N)=O)C(=O)N1C[C@@H](n2cc([C]34[CH]5[CH]6[CH]7[CH]3[Fe]6754389%10[CH]4[CH]3[CH]8[CH]9[CH]4%10)nn2)C[C@H]1C(=O)N[C@@H](Cc1c[nH]c2ccccc12)C(=O)N[C@@H](CO)C(N)=O (some centres unmarked) [UM41] (H-NI[X1]WS-NH2) | Not detectable | -6.1 kcal/mol | -1.6 kcal/mol | Not detectable
